Results from the METLIN SMRT retention time set (Domingo-Almenara et al. 2019).

Experiment: gradient 5% acetonitrile 3 min, to 50% in 2 min, to 85% in 15 min, held 3 min, 100 µL/min
Conditions: column: Zorbax Extend-C18 2.1 x 50 mm; eluents: water / acetonitrile, 0.1% formic acid
In short: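 In both positive and negative ionization mode, a quadrupole time-of-flight mass spectrometer coupled to HPLC analyzed pure standards run in mixtures of ~100 molecules. The Zorbax Extend-C18 column (2.1 × 50 mm, 1.8 μm) was operated at 100 μL/min with water and acetonitrile, each containing 0.1% formic acid. The dead volume was 40 μL and the dwell volume 900 μL. Retention time came from adduct peaks that were computationally picked and individually inspected by hand.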

Compound	RP-LC retention time [s]
O=C(NCc1cccc(Cl)c1)C1CCCN(c2nc3cccnc3n(Cc3ccccc3)c2=O)C1 (stereo not given)	1190
COc1cc2ncc(C(=O)c3ccccc3)c(N3CCN(C)CC3)c2cc1OC	556
CC(C)(C)c1csc(-c2csc(S(=O)(=O)Nc3ccc(F)cc3)c2)n1	1220
CCn1cnc(S(=O)(=O)N2CCC(C(=O)NCC(C)c3ccccc3)CC2)c1 (stereo not given)	732
CCSc1ccccc1C(=O)NC(C)Cc1ccco1 (stereo not given)	841
Cc1ncc2c(n1)C[C@@H]1CC[C@H]2N1C(=O)NCCc1ccccc1	647
CCCn1c(C2CCN(C(=O)Nc3cccc(C)c3)C2)nc2cccnc21 (stereo not given)	713
CCOc1ccc2nc(NC(=O)CCN3C(=O)C4C5C=CC(C5)C4C3=O)sc2c1 (stereo not given)	834
CCOc1ccc2nc(SCC(=O)Nc3nccs3)[nH]c2c1	622
CCc1cc(C2CCCN2Cc2ccc(OCC(N)=O)c(OC)c2)on1 (stereo not given)	570
CN(CCNc1nc(-c2ccc(Cl)cc2)nc2ccccc12)C1CCCCC1	642
COc1ccc(OC)c2sc(NC(=O)C3CCCCN3S(C)(=O)=O)nc12 (stereo not given)	793
COC(=O)C(C)NC(=O)NCc1cccn1Cc1ccccc1C (stereo not given)	821
Cc1csc(-c2ccc(CNC(=O)c3ccoc3)cc2)n1	781
Cc1ccc(NC(=O)N2CCC(N3CCN(Cc4ccc(F)cc4)C(=O)C3=O)CC2)c(C)c1	751
COCc1cn(C2CN(C(=O)c3cc(C)nn3C)C2)nn1	581
CSc1nc2ccc3nc(NC(=O)c4c(F)cccc4F)sc3c2s1	990
Cc1nn(-c2nc3ccccc3[nH]2)c2c1C(=O)CC(c1cccs1)C2 (stereo not given)	967
CN1C(=O)[C@H]2CN(Cc3ccc(Cl)cc3F)C[C@H]2C1=O	644
Cc1cccc(CN2C(=O)CN(S(C)(=O)=O)CC2(C)C(=O)NCc2ccccc2)c1 (stereo not given)	838

Compound	RP-LC retention time [s]
Cc1cc(NC(=O)c2cc(=O)c3ccccc3o2)n(-c2nc(-c3ccc(F)cc3)cs2)n1	1240
COCCCNC(=O)c1cccnc1N1CCNC(c2ccccc2)C1 (stereo not given)	578
COc1ccc(C(=O)NC2CCN(c3cc(-c4ccc(F)cc4)[nH]n3)C2)c(OC)c1 (stereo not given)	740
CCCc1noc(-c2ccnc(-n3ncc(C(=O)NC4CC4)c3C)c2)n1	839
CC(C)c1nncn1C1CCN(S(=O)(=O)c2ccc(C(F)(F)F)cc2)CC1	791
CCC(=O)N(C1CCOCC1)C1CCN(S(=O)(=O)c2ccc(F)c(Cl)c2)CC1	884
CCc1cc(=O)n(CC(=O)N(C)c2cccc(C)c2)c(-c2ccccc2)n1	1110
COc1ccc(-n2nnc(-c3nsc(Nc4ccc(OC)c(Cl)c4)n3)c2C)cc1	1010
CN1C(=O)C2(CCN(C(=O)c3ccc(F)cc3)C2)c2ccccc21 (stereo not given)	764
CC(C)CNC(=O)N1CCc2nc(OCC3CC3)ccc2C1	848
O=C(Cn1nc2c3c4c(sc3ncn2c1=O)CCCC4)N1CCc2ccccc2C1	1140
O=C1CC(c2noc(-c3ccc4c(c3)OCO4)n2)CN1c1ccc(F)c(Cl)c1 (stereo not given)	1010
COc1ccc(N2C(=O)C3N=NN(Cc4nc(-c5ccccc5Cl)no4)C3C2=O)cc1OC (stereo not given)	880
CCC(=O)N1CCc2ccccc2C1C(=O)NCCCN1CCCC1=O (stereo not given)	646
CCn1cc(-c2ccccc2)cc1C(=O)NC1CCCC1	1080
O=C(C1CCN(c2nc3ccc(-c4ccsc4)nc3s2)CC1)N1CCCCC1	911
COc1ccc(N2CC(c3noc(-c4ccc(F)cc4)n3)CC2=O)cc1OC (stereo not given)	856
Cn1cnc(S(=O)(=O)N2CCC(C(=O)Nc3cccc(Br)c3)CC2)c1	741
CCCn1cc(CCNC(=O)c2cc(F)ccc2Cl)c2cccnc21	795
COc1ccc(OC)c(NC(=O)c2[nH]c3cc(C)sc3c2CN2CCOCC2)c1	705

Compound	RP-LC retention time [s]
CNC(=O)c1ccsc1NC(=O)c1coc2ccccc2c1=O	709
CCCn1cc(C2=CCN(C(=O)NC3CCCCC3)CC2)c2cccnc21	943
CCN1CCN(c2ccc(-c3nc(-c4ccc(OC)cc4)no3)cn2)CC1	696
O=c1n(CC2CC2)c2cccnc2n1[C@H]1CCCN(S(=O)(=O)c2cccnc2)C1	835
CC(C)CCNC(=O)N1CCN(Cc2nc3ccc(Cl)cc3o2)CC1	746
CC1(COc2ccc3c(c2)ncn3-c2ccc3cccc(N4CCC(N)CC4)c3n2)COC1	667
CC(C)(C)c1ccc(C(=O)Nc2nc3ccccc3[nH]2)cc1	778
CCNC(=O)N(CC(=O)N1CCc2sccc2C1COc1ccc(F)cc1)CC1CCCO1 (stereo not given)	856
O=C(Nc1cccc(F)c1)C1CCCN(c2nc3ccccc3nc2C(F)(F)F)C1 (stereo not given)	1210
Cc1cc2n(n1)CCC(=O)N2CCCC(=O)NCCN(C)C1CCCCC1	576
COc1ccc(CNC(=O)Nc2cc3c(cc2N2CCCC2)n(C)c(=O)n3C)cc1	750
Cc1ccccc1NC(=O)/C=N/O	636
CCOc1cc(-c2noc(-c3ncn4c3COC(c3ccc(F)cc3)C4)n2)ccc1OC (stereo not given)	1040
Cc1ccc(NC(=O)Cn2c(=O)n(-c3ccccc3)c(=O)c3c2cc(C)n3C)c(Cl)c1	927
COc1cccc(CNC(=O)N2CCCC2c2cc(C(C)C)no2)c1 (stereo not given)	836
CCNC(=O)C1N(C(C)C)C(=O)C12CCCCC2 (stereo not given)	630
O=C(C1CCOC1)N1CCCn2nc(-c3ccc(Cl)cc3)cc2C1 (stereo not given)	767
NC(=O)C1CCN(CC(=O)Nc2nc(-c3ccccc3)cs2)CC1	588

More lines, now with the values ahead:

RP-LC retention time [s]	Compound
983	Cc1nc(-c2csc(S(=O)(=O)N3CCCC(C(=O)NCc4ccccc4C)C3)c2)no1 (stereo not given)
736	O=C(NCCc1c[nH]c2ccccc12)C1CC(=O)N(Cc2ccccc2)C1 (stereo not given)
1270	Cc1ccc(-c2csc(-n3nc(C)c(CC(=O)N4CCCCCC4)c3C)n2)cc1
761	COc1ccc(OC)c(CNC(=O)C2CCCN(c3ncnc4c3oc3ccccc34)C2)c1 (stereo not given)
1010	COc1ccc(-c2noc(C3CCCN3C(=O)c3ccc(C)cc3)n2)cc1 (stereo not given)
898	Cc1nc(-c2csc(S(=O)(=O)N3CCC(C(=O)N(C)Cc4ccccc4)CC3)c2)no1
674	O=C(Cn1c(=O)c2nncn2c2ncccc21)N1CCN(c2ccccc2)CC1
585	O=C(c1ccoc1)N1CCc2[nH]cnc2C1c1ccccc1 (stereo not given)
860	CCN1c2ccccc2C(=O)NC12CCN(C(=O)Nc1ccc(C)c(C)c1)CC2
929	CCn1c(=O)sc2cc(S(=O)(=O)N3CCC(C(=O)NCC(C)c4ccccc4)CC3)ccc21 (stereo not given)
621	Cn1cccc1Cc1nnc(SCC(=O)NO)n1Cc1ccccc1
959	CC(C)CCNC(=O)C1(C)CN(S(=O)(=O)c2ccccc2)CC(=O)N1c1ccc(F)cc1 (stereo not given)
645	CC(=O)N1c2ccc(S(=O)(=O)N3CCCCC3)cc2CC1C(=O)N1CCN(c2ccccn2)CC1 (stereo not given)
824	CC(C)S(=O)(=O)c1cc2c(cc1NC(=O)c1ccccc1Cl)n(C)c(=O)n2C
634	Cc1[nH]c(C(=O)N2CCCC(C(=O)NCCN3CCCCC3)C2)c(C)c1C(=O)OC(C)C (stereo not given)
798	COc1cccc(CNC(=O)C2CCN(S(=O)(=O)c3ccc4c(c3)sc(=O)n4C)CC2)c1

RP-LC retention time [s]	Compound
805	CC(=O)c1cccc(NS(=O)(=O)c2ccc(-c3c(C)noc3C)cc2)c1
822	CC(C)CNC(=O)CCc1nc2ccccc2n(CC(=O)NCc2ccccc2Cl)c1=O
722	Cc1cc(C)cc(NC(=O)N2CC(n3cnnc3-c3ccccc3)C2)c1
616	c1cc(-c2noc(C3CC3)n2)ccc1OC1CNC1
904	CCc1ccc(N2C(=O)CN(CCc3ccccc3F)[C@H]3CS(=O)(=O)C[C@H]32)cc1
728	CCNC(=O)N1CC(c2nc(-c3ccccc3)no2)C2(CCOCC2)C1 (stereo not given)
676	Cc1ccc2cc(CCC(=O)N3CCCN(c4ncccn4)CC3)c(=O)[nH]c2c1
1030	CCSc1nnc(-c2nn(C)c3c2CN(S(=O)(=O)c2ccc(CC)cc2)CC3)n1CC
723	CS(=O)(=O)c1ccc([C@@H](O)[C@@H](CF)NC(=O)C(Cl)Cl)cc1
817	Cc1cc2c(cc1S(=O)(=O)N1CCCC1C(=O)Nc1cccc(Cl)c1)OCC(=O)N2 (stereo not given)
617	Cc1ccnc(Nc2nc(C)c(C(=O)N3CCOCC3)s2)c1
761	COc1ccc(-c2nc3ccc(C)cn3c2Nc2ccccc2C)cc1
757	CCCCNC(=O)C1CCC(=O)N(c2ccc(OC)cc2)C1c1ccc(F)cc1 (stereo not given)
614	COc1cc(NC(=O)c2cn3c(n2)CCCC3)cc(OC)c1
805	O=C(CCc1ccccc1)Nc1nnc(C2CC(=O)N(c3ccc(Cl)cc3)C2)o1 (stereo not given)
919	Cc1ccc(CCC(=O)Nc2ccc(SC(F)F)cc2)o1
